Experimental findings from patent EP1824486B1, “BENZDIOXANE PIPERAZINE DERIVATIVES WITH A COMBINATION OF AFFINITY FOR DOPAMINE-D2 RECEPTORS AND SEROTONIN REUPTAKE SITES” (Solvay Pharmaceuticals B.V., priority 2004, dated 2006) are described below.

For one assay, the target named is T1, serotonin reuptake sites (Rattus norvegicus, UniProt P31652).
T1 construct: from tissue; host or cells: rat cortical membranes (from the title of the cited method only)
The assay can be described thus: In vitro affinity for serotonin reuptake sites ([3H]-paroxetine binding assay, Habert et al.). The conditions noted are these: average values from three independent experiments; read-out: in vitro affinity 5-HT reuptake binding Ki. The source says: In vitro affinity for serotonin reuptake sites

Another assay has as its target T2, dopamine D2 receptors (Mus musculus, UniProt P61168).
T2 construct: antagonize apomorphine-induced climbing behaviour in mice; from tissue; host or cells: living mice (in vivo behavioural model)
The assay can be described thus: Antagonism of apomorphine-induced climbing behaviour in mice (APO-climb). The settings on record: po, read-out: in vivo activity Dopamine-D2 APO-climb* ED50 mg/kg po.

In a further assay the target is T3, serotonin reuptake (Mus musculus, UniProt Q60857).
T3 construct: they potentiate 5-HTP induced behaviour in mice; from tissue; host or cells: living mice (in vivo behavioural model)
T3 sequence (Q60857 whole entry): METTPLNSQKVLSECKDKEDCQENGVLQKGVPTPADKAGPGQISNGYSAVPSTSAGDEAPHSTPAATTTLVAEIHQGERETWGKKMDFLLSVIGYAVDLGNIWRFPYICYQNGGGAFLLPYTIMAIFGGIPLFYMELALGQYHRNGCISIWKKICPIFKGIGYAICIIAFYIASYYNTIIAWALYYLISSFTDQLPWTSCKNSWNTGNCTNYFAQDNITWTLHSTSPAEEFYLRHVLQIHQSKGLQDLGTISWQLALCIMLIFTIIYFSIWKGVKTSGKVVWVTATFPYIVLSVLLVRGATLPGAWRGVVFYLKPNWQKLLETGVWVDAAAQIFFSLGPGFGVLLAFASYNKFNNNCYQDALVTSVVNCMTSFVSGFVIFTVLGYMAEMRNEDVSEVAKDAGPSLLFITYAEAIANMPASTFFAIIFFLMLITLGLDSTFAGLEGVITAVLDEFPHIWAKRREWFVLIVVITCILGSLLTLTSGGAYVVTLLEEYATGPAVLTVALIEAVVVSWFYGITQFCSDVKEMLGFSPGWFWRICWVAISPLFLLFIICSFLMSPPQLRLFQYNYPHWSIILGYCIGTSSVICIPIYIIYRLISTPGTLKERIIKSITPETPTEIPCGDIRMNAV
The assay can be described thus: Potentiation of 5-HTP induced behaviour in mice. The conditions noted are these: po, read-out: in vivo activity 5-HT reuptake 5-HTP** ED50 mg/kg po.

T1 sequence (P31652 whole entry): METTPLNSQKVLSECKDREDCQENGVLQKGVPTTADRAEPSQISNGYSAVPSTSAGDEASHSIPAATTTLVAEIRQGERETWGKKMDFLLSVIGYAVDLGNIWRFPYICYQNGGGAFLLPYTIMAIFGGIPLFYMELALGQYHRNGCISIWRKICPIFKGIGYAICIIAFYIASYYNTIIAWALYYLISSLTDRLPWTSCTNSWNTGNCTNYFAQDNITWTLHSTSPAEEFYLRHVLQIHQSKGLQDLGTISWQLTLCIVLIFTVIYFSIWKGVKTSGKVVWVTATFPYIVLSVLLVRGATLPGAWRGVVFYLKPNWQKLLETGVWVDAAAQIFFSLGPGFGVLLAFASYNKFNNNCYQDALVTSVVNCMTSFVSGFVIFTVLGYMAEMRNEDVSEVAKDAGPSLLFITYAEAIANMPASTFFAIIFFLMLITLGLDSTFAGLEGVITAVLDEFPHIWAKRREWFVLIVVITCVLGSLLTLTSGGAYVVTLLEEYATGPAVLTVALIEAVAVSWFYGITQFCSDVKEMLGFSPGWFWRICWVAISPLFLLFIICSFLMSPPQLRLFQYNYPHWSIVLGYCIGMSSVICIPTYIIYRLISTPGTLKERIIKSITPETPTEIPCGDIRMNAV
T2 sequence (P61168 whole entry): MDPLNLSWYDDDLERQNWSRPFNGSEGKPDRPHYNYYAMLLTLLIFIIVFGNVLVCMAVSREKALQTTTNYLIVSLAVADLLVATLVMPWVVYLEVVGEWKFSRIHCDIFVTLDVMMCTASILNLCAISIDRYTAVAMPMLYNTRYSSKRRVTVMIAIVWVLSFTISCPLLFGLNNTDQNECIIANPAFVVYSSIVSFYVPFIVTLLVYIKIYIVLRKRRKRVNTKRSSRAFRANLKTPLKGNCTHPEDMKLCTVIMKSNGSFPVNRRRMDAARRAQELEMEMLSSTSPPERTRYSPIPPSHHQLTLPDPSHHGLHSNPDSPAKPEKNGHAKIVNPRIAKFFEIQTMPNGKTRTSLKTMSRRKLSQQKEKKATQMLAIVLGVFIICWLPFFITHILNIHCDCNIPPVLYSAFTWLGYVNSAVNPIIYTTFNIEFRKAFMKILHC

In general, Ki refers to the equilibrium dissociation constant of an inhibitor or competing ligand from its target. Take `c1cc2c(c(N3CCN(Cc4c[nH]c5ccccc45)CC3)c1)OCCO2` [compound 5a, 3-[4-(2,3-Dihydro-benzo[1,4]dioxin-5-yl)-piperazin-1-yl-methyl]-1H-indole]: the Ki at serotonin reuptake sites is 176 ± 59 nM. In the case of `Clc1ccc2c(CCCN3CCN(c4cccc5c4OCCO5)CC3)c[nH]c2c1` [compound 5k, 3-{3-[4-(2,3-Dihydro-benzo[1,4]dioxin-5-yl)-piperazin-1-yl]-propyl}-6-chloro-1H-indole], the Ki on serotonin reuptake sites was 2 ± 0.7 nM. Besides, the results for the ED50 at dopamine D2 receptors and on serotonin reuptake were 4.5 mg/kg and 86 mg/kg, respectively. With `Fc1ccc2[nH]cc(CCCN3CCN(c4cccc5c4OCCO5)CC3)c2c1` [compound 5e, 3-{3-[4-(2,3-Dihydro-benzo[1,4]dioxin-5-yl)-piperazin-1-yl]-propyl}-5-fluoro-1H-indole], on serotonin reuptake sites, the Ki was determined as 0.3 ± 0.1 nM. Also, the ED50 on serotonin reuptake is 2 mg/kg. In the case of `c1cc2c(c(N3CCN(CCCc4c[nH]c5ccccc45)CC3)c1)OCCO2` [compound 5b, 3-{3-[4-(2,3-Dihydro-benzo[1,4]dioxin-5-yl)-piperazin-1-yl]-propyl}-1H-indole], on serotonin reuptake sites, the Ki came out at 0.4 ± 0.1 nM. Further, the ED50 at dopamine D2 receptors came to 10 mg/kg; at serotonin reuptake, 22 mg/kg. `c1cc2c(c(N3CCN(CCCc4c[nH]c5ccccc45)CC3)c1)CCCO2` [compound 14, 3-[3-(4-chroman-5-yl-piperazine-1-yl)-propyl]-1H-indole]: on serotonin reuptake sites, the Ki turned out to be 1.1 ± 0.3 nM. On the same count and under the same terms, in the case of `COc1ccc2[nH]cc(CCCN3CCN(c4cccc5c4OCCO5)CC3)c2c1` [compound 5h, 3-{3-[4-(2,3-Dihydro-benzo[1,4]dioxin-5-yl)-piperazin-1-yl]-propyl}-5-methoxy-1H-indole] it was 14 ± 4 nM. Regarding `Fc1cccc2c(CCCN3CCN(c4cccc5c4OCCO5)CC3)c[nH]c12` [compound 5g, 3-{3-[4-(2,3-Dihydro-benzo[1,4]dioxin-5-yl)-piperazin-1yl]-propyl}-7-fluoro-1H-indole], the Ki at serotonin reuptake sites amounted to 0.6 ± 0.1 nM. On serotonin reuptake, the ED50 came out at 28.4 mg/kg. For `Cc1cccc2c(CCCN3CCN(c4cccc5c4OCCO5)CC3)c[nH]c12` [compound 5n, 3-{3-[4-(2,3-Dihydro-benzo[1,4]dioxin-5-yl)-piperazin-1-yl]-propyl}-7-methyl-1H-indole], the Ki at serotonin reuptake sites came to 12 ± 5 nM. As to `Fc1ccc2c(CCCN3CCN(c4cccc5c4OCCO5)CC3)c[nH]c2c1` [compound 5f, 3-{3-[4-(2,3-Dihydro-benzo[1,4]dioxin-5-yl)-piperazin-1-yl]-propyl}-6-fluoro-1H-indole], the Ki on serotonin reuptake sites came out at 1.6 ± 0.2 nM. Besides, the ED50 at dopamine D2 receptors worked out at 9 mg/kg. For the molecule `Fc1cccc2[nH]cc(CCCN3CCN(c4cccc5c4OCCO5)CC3)c12` [compound 5d, 3-{3-[4-(2,3-Dihydro-benzo[1,4]dioxin-5-yl)-piperazin-1-yl]-propyl}-4-fluoro-1H-indole], the Ki on serotonin reuptake sites amounted to 0.4 ± 0.1 nM. Besides, the values for the ED50 at dopamine D2 receptors and on serotonin reuptake were 13 mg/kg and 32 mg/kg, respectively.

`c1cc2c(c(N3CCN(CCCCCc4c[nH]c5ccccc45)CC3)c1)OCCO2` [compound 5c, 3-{5-[4-(2,3-Dihydro-benzo[1,4]dioxin-5-yl)-piperazin-1-yl]-pentyl}-1H-indole]: at serotonin reuptake sites, the Ki came to 37 ± 3 nM.

For `Clc1cccc2c(CCCN3CCN(c4cccc5c4OCCO5)CC3)c[nH]c12` [5l, 3-{3-[4-(2,3-Dihydro-benzo[1,4]dioxin-5-yl)-piperazin-1-yl]-propyl}-7-chloro-1H-indole], the Ki at serotonin reuptake sites is 7.9 ± 2.8 nM.

Turning to `Clc1cccc2[nH]cc(CCCN3CCN(c4cccc5c4OCCO5)CC3)c12` [compound 5i, 3-{3-[4-(2,3-Dihydro-benzo[1,4]dioxin-5-yl)-piperazin-1-yl]-propyl}-4-chloro-1H-indole], on serotonin reuptake sites, the Ki stood at 1.4 ± 0.4 nM.
